Experiments:
in vitro = format: cell-based; details: human, Caco-2; for viability at 48 h, 500 µM: read-out: Viability of Caco-2 cells (lowered to); for CC50 at 48 h: XTT; for selectivity ratio at 48 h: ratio of CC50/IC50 between mammal cells and trophozoites, read-out: Selectivity index (SI), CC50 Caco-2 / IC50 trophozoites
Procedure: (§1) The cytotoxicity of compounds was investigated on human cell lines Caco-2 (ATCC HTB-37) and HT-29 (ATCC HHTB-38), using a Cell Proliferation Kit II (XTT; St Louis, MO, USA) according to the manufacturer’s instructions. A cell suspension of 10^5 cells/mL was prepared in Dulbecco’s modified Eagle’s (DMEM); medium supplemented with 10% inactivated fetal bovine serum and 1% Penicillin/streptomycin (5000 U/mL), from confluent cultures, and […] portions of the suspension were added to the wells of 96-well plates. […] Solutions of the compound were prepared and sterilized as described in Section 3.4.1 of Materials and Methods. Then, 150 μL of two-fold serial dilutions of each of the compounds, starting at a concentration of 500 µM, in a culture medium at a concentration of 0.3% DMSO, were prepared in the plates. […] Each compound was assayed in triplicate via three independent experiments.

Caco-2 cells = assay: in vitro; format: cell-based
Procedure: as §1

[1] = In vitro cytotoxicity, XTT assay, HT29; format: cell-based, human; details: human, HT-29 cells; for viability at 48 h, 500 µM: read-out: Viability of HT-29 cells (lowered to); for CC50 at 48 h: XTT
Procedure: as §1

HT29 cells = assay: In vitro cytotoxicity, XTT assay, HT29; format: cell-based, human; details: for Selectivity index (SI), CC50 HT29 / IC50 trophozoites: ratio of CC50/IC50 between mammal cells and trophozoites
Procedure: as §1

[2] = target: T1, triosephosphate isomerase (TPI) (Giardia intestinalis, UniProt P36186); assay: Inactivation of recombinant TPI enzyme with compounds; format: biochemical; details: for Loss (reduction) of TPI enzyme activity: 500 µM compound, 2 h at 37 °C
T1 construct: His-tag (TEV-cleavable) (cleaved yes); made in house
Procedure: The TPI from G. lamblia was expressed and purified. […] When the culture reached A600 = 0.8, it was induced using 0.4 mM IPTG and incubated overnight at 30 °C with shaking at 180 rpm. After the bacteria were collected by centrifugation (10,000× g, 15 min) and suspended in 40 mL of lysis buffer, pH 8.0 (50 mM Tris, 50 mM NaCl, 5 mM β-mercaptoethanol, and 1 mM phenylmethylsulfonyl fluoride). The bacterial suspension was disrupted by sonication and centrifuged at 9000× g for 1 h at 4 °C. Protein purification was performed by immobilized metal affinity chromatography (IMAC) using a Profinity Ni^2+ charged resin (Bio-Rad) previously reported by Enriquez-Flores et al.. The His-tag sequence was removed from the TIM by incubation with TEVP at a molar ratio of 30:1 (TPI/TEVP) at room temperature for 17 h in digestion buffer, pH 8.0 (50 mM Tris, 0.5 mM ethylene diamine tetraacetic acid (EDTA), and 1 mM dithiothreitol). The enzyme concentration was spectrophotometrically determined at 280 nm, and the enzyme was used immediately.
Enzyme activity of TPI was determined spectrophotometrically as described by monitoring the conversion of glyceraldehyde-3-phosphate (GAP) to dihydroxyacetone phosphate (DHAP). […] The standard reaction mixture contained 1 mM GAP, 0.2 mM NADH, and 0.9 units/mL of α-GDH in TE buffer (100 mM triethanolamine, 10 mM EDTA, pH 7.4). The reaction was initiated by adding 5 ng/mL of TPI to the reaction mixture.
(§2) To determine the inactivation of the TPI enzyme from G. lamblia, we performed inactivation assays of the enzyme in the presence of the synthesized compounds. The compounds’ stock solutions were freshly prepared using 100% dimethyl sulfoxide (DMSO) as the solvent at 25 mM. […] After the incubation period, the enzymatic activity was measured by withdrawing an aliquot of each experimental condition, as described above. The results were expressed in terms of the percentage of activity versus the compound’s concentration.

[3] = target: T1, triosephosphate isomerase (TPI); assay: Second-order inactivation constant (k2) of TPI; format: biochemical, Giardia lamblia; details: read-out: Second-order inactivation constant k2
Procedure: Enzyme activity of TPI was determined spectrophotometrically as described by monitoring the conversion of glyceraldehyde-3-phosphate (GAP) to dihydroxyacetone phosphate (DHAP). Briefly, the conversion of GAP to DHAP using a coupling system with enzyme α-glycerol-3-phosphate dehydrogenase (α-GDH) was determinate by measuring NADH oxidation at 340 nm, at 25 °C. The standard reaction mixture contained 1 mM GAP, 0.2 mM NADH, and 0.9 units/mL of α-GDH in TE buffer (100 mM triethanolamine, 10 mM EDTA, pH 7.4). The reaction was initiated by adding 5 ng/mL of TPI to the reaction mixture.
as §2, with “mM. The inactivation assays were performed by incubating 0.2 mg/mL of the TPI enzyme for 2 h at 37 °C in TE buffer with increasing concentrations of the compounds (0 to 500 μM).” for “mM.”
The second-order rate constants of inactivation were calculated by obtaining the pseudo-first-order rate constant (k1) values at each fixed concentration by fitting them to an exponential decay curve. Then, the k1 values were replotted against the concentrations of each compound; the second-order rate constant value of inactivation was obtained from the slope of these plots.

[4] = target: T1, triosephosphate isomerase (TPI); assay: Thermal stability of TPI by circular dichroism at 222 nm; details: for Tm of TPI enzyme incubated with compound: compound at its IC50 concentration, 2 h at 37 °C, TPI free of treatment 60.6 °C
Procedure: All spectroscopic assays were carried out at a protein concentration of 0.2 mg/mL. Changes in the secondary structure of proteins were monitored by circular dichroism (CD) in a Jasco-810 spectropolarimeter containing a thermostated Peltier-controlled cell holder. For CD experiments, the enzyme was suspended in 50 mM phosphate buffer (buffer P), pH 7.4, and incubated with the four synthesized compounds by 2 h at 37 °C. Spectral scans from 190 to 280 nm at 0.1 nm intervals were performed at 25 °C using a quartz cell with 0.1 cm path length. All CD data were reported as molar ellipticity. In addition, the thermostability of modified TPI enzyme in the absence or presence of each of the synthesized compounds was evaluated, recording the loss of CD signal at 222 nm during a temperature scan ranging from 25 to 75 °C and an increase of 1 °C/2.5 min. The unfolded fraction of enzyme and melting temperature (Tm) was determined as reported before. The experiments were performed in triplicate.

[5] = 500 µM (highest concentration tested)

T1 sequence (P36186 whole entry): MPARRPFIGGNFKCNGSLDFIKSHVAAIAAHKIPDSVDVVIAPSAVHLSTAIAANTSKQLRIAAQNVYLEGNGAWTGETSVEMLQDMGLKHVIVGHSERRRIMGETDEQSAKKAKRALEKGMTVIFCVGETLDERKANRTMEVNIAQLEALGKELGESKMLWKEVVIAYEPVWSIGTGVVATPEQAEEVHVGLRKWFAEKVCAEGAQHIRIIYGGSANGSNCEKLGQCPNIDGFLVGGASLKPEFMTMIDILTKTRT

SMILES	viability at 48 h, 500 µM (in vitro)	CC50 at 48 h (in vitro)	selectivity ratio at 48 h (in vitro)	Cell viability decrease, Caco-2 (Caco-2 cells; 150 µM)	viability at 48 h, 500 µM [1]	CC50 at 48 h [1]	Cell viability decrease, HT29 (HT29 cells; 150 µM)	Selectivity index (SI), CC50 HT29 / IC50 trophozoites (HT29 cells)	Enhancement of TPI inactivation (IC50) with respect to BHO2 [2]	IC50 [2]	Loss (reduction) of TPI enzyme activity [2]	kinact/KI [3]	Tm of TPI enzyme incubated with compound [4]	Cell viability decrease, Caco-2 (Caco-2 cells; [5])	CC50 (Caco-2 cells; XTT, 48 h)	Cell viability decrease, HT29 (HT29 cells; [5])	CC50 (HT29 cells; XTT, 48 h)	Loss in thermal stability of TPI ([4]; versus TPI free of treatment)
Cc1c(OCC(F)(F)F)ccnc1C[S+]([O-])c1nc2ccc([N+](=O)[O-])cc2[nH]1 (centres unmarked) [O2N-BZM9, 2-{[3-methyl-4-(2,2,2-trifluoroethoxy)pyridin-2-yl]methanesulfinyl}-5-nitro-1H-benzimidazole]	~50%	663 µM	39	around 20%	~50%	622 µM	around 20%	36	3.2 fold	20 µM	100%	2.8 M⁻¹ s⁻¹	58.4 °C	–	–	–	–	–
Cc1c(OCC(F)(F)F)ccnc1C[S+]([O-])c1nc2ccccc2[nH]1 (centres unmarked) [Lansoprazole, 2-{[3-methyl-4-(2,2,2-trifluoroethoxy)pyridin-2-yl]methanesulfinyl}-1H-benzimidazole, reference compound]	–	–	59	–	–	–	–	12	–	66 µM	100%	1.78 M⁻¹ s⁻¹	60.2 °C	approximately 20%	2640 µM	approximately 20%	548 µM	–
O=[N+]([O-])c1ccc2nc([S+]([O-])Cc3ccccn3)[nH]c2c1 (centres unmarked) [O2N-BZM7, 5-nitro-2-[(pyridin-2-yl)methanesulfinyl]-1H-benzimidazole]	~50%	640 µM	45	around 20%	~50%	519 µM	around 20%	37	5.3 fold	12 µM	100%	3.2 M⁻¹ s⁻¹	57.5 °C	–	–	–	–	3 °C
COc1c(C)cnc(C[S+]([O-])c2nc3ccccc3[nH]2)c1C (centres unmarked) [H-BZM2, 2-[(4-methoxy-3,5-dimethylpyridin-2-yl)methanesulfinyl]-1H-benzimidazole]	–	3180 µM	88	–	–	1910 µM	–	53	–	37 µM	100%	2.3 M⁻¹ s⁻¹	59.9 °C	approximately 20%	–	approximately 20%	–	–

— PMC7504735, “Enhanced Antigiardial Effect of Omeprazole Analog Benzimidazole Compounds” (Molecules, 2020)
